Reference: the NIST ThermoML archive (doi:10.1021/je700260f)

Conditions: 293.15 K, Liquid, Vibrating tube method

FC(C(F)(F)F)C(F)(F)F [1,1,1,2,3,3,3-heptafluoropropane]
Conditions	mass density [kg/m3]
11786 kPa	1474.1
11826 kPa	1474.2
11860 kPa	1474.3
11894 kPa	1474.6
11934 kPa	1474.7
11967 kPa	1474.9
12017 kPa	1475.1
12045 kPa	1475.2
12079 kPa	1475.4
12119 kPa	1475.5
12156 kPa	1475.8
12195 kPa	1475.9
12235 kPa	1476.1
12280 kPa	1476.3
12314 kPa	1476.4
12354 kPa	1476.7
12388 kPa	1476.9
12422 kPa	1476.9
12468 kPa	1477.1
12502 kPa	1477.4
12549 kPa	1477.5
12591 kPa	1477.7
12626 kPa	1477.9
12670 kPa	1478
12710 kPa	1478.2
12745 kPa	1478.3
12888 kPa	1479
12980 kPa	1479.5
13020 kPa	1479.6
13072 kPa	1479.9
13099 kPa	1480
13131 kPa	1480.1
13163 kPa	1480.3
13195 kPa	1480.5
13233 kPa	1480.6
13264 kPa	1480.7
13307 kPa	1480.8
13344 kPa	1481.1
13371 kPa	1481.1
13408 kPa	1481.4
13440 kPa	1481.4
13489 kPa	1481.8
13521 kPa	1481.8
13564 kPa	1482
13606 kPa	1482.2
13649 kPa	1482.4
13687 kPa	1482.5
13719 kPa	1482.6
13758 kPa	1482.8
13797 kPa	1482.9
13824 kPa	1483.2
13857 kPa	1483.3
13891 kPa	1483.4
13930 kPa	1483.6
13963 kPa	1483.7
14065 kPa	1484.2
14101 kPa	1484.3
14128 kPa	1484.5
14165 kPa	1484.6
14192 kPa	1484.8
14223 kPa	1484.9
14249 kPa	1484.9
14285 kPa	1485
14316 kPa	1485.3
14339 kPa	1485.3
14370 kPa	1485.5
14403 kPa	1485.6
14431 kPa	1485.7
14462 kPa	1485.9
14489 kPa	1486
14520 kPa	1486.2
14557 kPa	1486.3
14598 kPa	1486.4
14635 kPa	1486.6
14673 kPa	1486.7
14705 kPa	1487
14732 kPa	1486.9
14759 kPa	1487.1
14795 kPa	1487.3
14831 kPa	1487.5
14872 kPa	1487.5
14913 kPa	1487.8
14940 kPa	1487.9
14973 kPa	1488
15005 kPa	1488.2
15038 kPa	1488.2
15080 kPa	1488.6
15103 kPa	1488.6
15144 kPa	1488.7
15181 kPa	1488.9
15209 kPa	1488.8
15237 kPa	1489.1
15270 kPa	1489.2
15298 kPa	1489.5
15335 kPa	1489.4
15363 kPa	1489.7
15398 kPa	1489.7
15425 kPa	1489.9
15467 kPa	1490.1
15504 kPa	1490.2
15527 kPa	1490.4
15569 kPa	1490.6
15611 kPa	1490.8
15639 kPa	1490.9
15672 kPa	1490.8
15719 kPa	1491.1
15747 kPa	1491.3
15777 kPa	1491.4
15814 kPa	1491.4
15837 kPa	1491.6
15880 kPa	1491.9
15913 kPa	1492
15942 kPa	1492.2
15975 kPa	1492.2
16018 kPa	1492.4
16046 kPa	1492.3
16079 kPa	1492.7
16118 kPa	1492.8
16153 kPa	1493
16181 kPa	1493.1
16215 kPa	1493.2
16244 kPa	1493.2
16277 kPa	1493.6
16315 kPa	1493.7
16344 kPa	1493.7
16377 kPa	1493.9
16411 kPa	1493.9
16446 kPa	1494.1
16474 kPa	1494.1
16503 kPa	1494.3
16532 kPa	1494.4
16734 kPa	1495.3
16772 kPa	1495.4
16831 kPa	1495.6
16865 kPa	1495.9
16904 kPa	1496
16934 kPa	1496.2
16964 kPa	1496.2
16998 kPa	1496.3
17038 kPa	1496.5
17068 kPa	1496.6
17113 kPa	1496.7
17158 kPa	1497
17183 kPa	1497.1
17228 kPa	1497.2
17263 kPa	1497.4
17293 kPa	1497.5
17334 kPa	1497.7
17375 kPa	1497.8
17405 kPa	1498
17450 kPa	1498.2
17485 kPa	1498.2
17520 kPa	1498.5
17555 kPa	1498.5
17654 kPa	1498.9
17694 kPa	1499.1
17726 kPa	1499.2
17756 kPa	1499.4
17801 kPa	1499.4
17831 kPa	1499.5
17856 kPa	1499.6
17902 kPa	1499.9
17933 kPa	1499.9
17969 kPa	1500.2
18004 kPa	1500.4
18044 kPa	1500.5
18075 kPa	1500.4
18124 kPa	1500.8
18164 kPa	1500.9
18194 kPa	1501.1
18235 kPa	1501.3
18276 kPa	1501.4
18313 kPa	1501.5
18349 kPa	1501.6
18391 kPa	1501.8
18428 kPa	1502
18459 kPa	1502
18502 kPa	1502.3
18544 kPa	1502.5
18574 kPa	1502.5
18611 kPa	1502.7
18650 kPa	1502.7
18678 kPa	1502.9
18720 kPa	1503.1
18753 kPa	1503.1
18785 kPa	1503.3
18822 kPa	1503.5
18859 kPa	1503.7
18888 kPa	1503.6
18925 kPa	1503.8
18953 kPa	1503.9
18981 kPa	1504.1
19018 kPa	1504.2
19055 kPa	1504.4
19084 kPa	1504.5
19116 kPa	1504.5
19145 kPa	1504.6
19183 kPa	1504.8
19210 kPa	1505
19243 kPa	1505
19282 kPa	1505.2
19320 kPa	1505.4
19349 kPa	1505.5
19392 kPa	1505.6
19430 kPa	1505.9
19460 kPa	1505.8
